Patent US8062639B2 (priority 2008, dated 2011)

How the values were obtained:
conscious rats = format: in vivo, rat; conditions: for death after hemorrhage plus infusion / restoration of plasma/blood volume after hemorrhage: 20 ml/kg hemorrhage plus infusion of 2 mg/ml (5 ml/hr) (FIG. 3); for change in plasma volume, infusion alone: infusion of 2 mg/ml (5 ml/hr), no hemorrhage, 8 rats/group (FIG. 3)
soluble dog Na/K ATPase = biological target: T1, soluble dog Na/K ATPase (Canis lupus familiaris, UniProt P50997); assay: Na/K ATPase activity by pNPP conversion; format: biochemical; conditions: rate at 400 nm over 30 min, various concentrations (FIG. 2)
T1 construct: soluble Dog kidney Na/K ATPase; purchased SigmaAldrich; host or cells: dog kidney (the tissue is named only in the general description)

SMILES | death after hemorrhage plus infusion (conscious rats) | restoration of plasma/blood volume after hemorrhage (conscious rats) | change in plasma volume, infusion alone (conscious rats) | inhibition of Na/K ATPase (conversion of pNPP to pNP) (soluble dog Na/K ATPase)
C[C@]12CC[C@H](O)C[C@H]1CC[C@@H]1[C@@H]2CC[C@]2(C)[C@@H](c3ccc(=O)oc3)CC[C@]12O [Bufalin] | leads to death | prevents restoration | no effect on plasma volume | 
C[C@]12CC[C@H](O)C[C@@]1(O)CC[C@@H]1[C@@H]2CC[C@]2(C)[C@@H](c3ccc(=O)oc3)C[C@H]3O[C@]132 [marinobufogenin] |  | did not have this effect |  | inhibits Na/K ATPase in a dose-response manner
C[C@@H]1O[C@@H](O[C@H]2C[C@@H](O)[C@]3(CO)[C@H]4[C@H](O)C[C@]5(C)[C@@H](C6=CC(=O)OC6)CC[C@]5(O)[C@@H]4CC[C@]3(O)C2)[C@H](O)[C@H](O)[C@H]1O [ouabain] | leads to death | prevents restoration | no effect on plasma volume | inhibits Na/K ATPase in a dose-response manner
